Assay results: ChEMBL document CHEMBL5303304, “EUbOPEN Chemogenomics Library - IncuCyte” (2023)

Tests used:
Type in all cases: toxicity, cell-based
[1] = system: U2OS; assay: Incucyte cell viability with U2OS; settings: human, 10 µM, compound concentration 10 uM
[2] = system: Fibroblast; assay: Incucyte cell viability with human fibroblast; settings: 10 µM, compound concentration 10 uM
[3] = system: HEK-293T; assay: Incucyte cell viability with HEK293T; settings: human, 10 µM, compound concentration 10 uM
Also: unitless GR value; below 1 slowed growth and below 0 cell loss.

| Structure (SMILES) | Growth Rate ([1]; 6 h, replicate number 1) | Growth Rate ([1]; 12 h, replicate number 1) | Growth Rate ([1]; 24 h, replicate number 1) | Growth Rate ([2]; 6 h, replicate number 1) | Growth Rate ([2]; 6 h, replicate number 2) | Growth Rate ([2]; 12 h, replicate number 2) | Growth Rate ([2]; 18 h, replicate number 1) | Growth Rate ([2]; 18 h, replicate number 2) | Growth Rate ([2]; 24 h, replicate number 1) | Growth Rate ([2]; 24 h, replicate number 2) | Growth Rate ([3]; 6 h, replicate number 1) | Growth Rate ([3]; 12 h, replicate number 1) | Growth Rate ([3]; 12 h, replicate number 2) | Growth Rate ([3]; 18 h, replicate number 1) | Growth Rate ([3]; 18 h, replicate number 2) | Growth Rate ([3]; 24 h, replicate number 1) | Growth Rate ([3]; 24 h, replicate number 2) | Growth Rate ([1]; 6 h, replicate number 2) | Growth Rate ([1]; 18 h, replicate number 1) | Growth Rate ([3]; 6 h, replicate number 2) | also measured |
| --- | --- | --- | --- | --- | --- | --- | --- | --- | --- | --- | --- | --- | --- | --- | --- | --- | --- | --- | --- | --- | --- |
| O=C(CCCCCCc1ccccc1)c1ncc(-c2ccccn2)o1 | 0.84 | 0.58 | 0.87 | 0.4 | 0.12 | 0.63 | 0.96 | 0.85 | 0.93 | 0.84 | 0.7 | 0.79 | 0.88 | 0.76 | 0.88 | 0.8 | 0.97 | – | – | – | Growth Rate ([1]; 0 h, replicate number 1): 0.55; Growth Rate ([2]; 0 h, replicate number 1): -0.98 |
| COc1cc(F)ccc1-c1ncnc(Nc2cccc(C[S@](C)(=N)=O)c2)n1 [ATUVECICLIB] | 0.72 | 0.33 | 0.03 | -0.11 | -0.07 | -0.33 | -0.01 | -0.2 | 0.09 | -0.14 | -0.48 | -0.37 | -0.56 | -0.26 | -0.44 | -0.25 | -0.36 | 0.22 | 0.11 | -0.61 | Growth Rate ([1]; 0 h, replicate number 2): 0.53; Growth Rate ([1]; 12 h, replicate number 2): 0.18; Growth Rate ([1]; 18 h, replicate number 2): 0.07; Growth Rate ([1]; 24 h, replicate number 2): -0.05; Growth Rate ([2]; 0 h, replicate number 1): -0.58; Growth Rate ([2]; 12 h, replicate number 1): -0.04 |
| Cc1cc(OC2CCS(=O)(=O)CC2)cc(C)c1-c1cccc(COc2ccc(C(=O)O)c(F)c2)c1 | 0.56 | 0.61 | 0.98 | 0.86 | – | 0.57 | – | – | – | 0.92 | – | – | 0.96 | 0.96 | 0.88 | 0.9 | 0.84 | 0.65 | 0.85 | – | Growth Rate ([1]; 0 h, replicate number 2): 0.93; Growth Rate ([1]; 12 h, replicate number 2): 0.49; Growth Rate ([1]; 18 h, replicate number 2): 0.77; Growth Rate ([1]; 24 h, replicate number 2): 0.75; Growth Rate ([2]; 0 h, replicate number 1): -0.85; Growth Rate ([3]; 0 h, replicate number 2): 0.65 |
| Cn1cnc(Cn2ccc3ccc(CNCc4[nH]c5ccccc5c4[C@@H]4NC(=O)c5ccc(O)cc54)cc32)c1 | 0.54 | 0.8 | 0.95 | 0.3 | -0.87 | 0.75 | 0.8 | 0.38 | 0.98 | 0.88 | – | – | – | – | – | – | – | 0.95 | 0.99 | – | Growth Rate ([1]; 12 h, replicate number 2): 0.81; Growth Rate ([1]; 18 h, replicate number 2): 0.85; Growth Rate ([2]; 0 h, replicate number 1): -0.98; Growth Rate ([2]; 0 h, replicate number 2): 0.6; Growth Rate ([3]; 0 h, replicate number 1): 0.61 |
| Fc1ccc(-c2c3cccc(C(F)(F)F)c3nn2Cc2ccc(F)cc2Cl)cc1 [LXR-623] | – | – | – | -0.18 | 0.35 | 0.12 | -0.12 | -0.04 | -0.06 | 0.03 | 0.77 | 0.75 | 0.57 | 0.77 | 0.76 | 0.91 | 0.73 | 0.69 | – | 0.3 | Growth Rate ([1]; 0 h, replicate number 2): 0.79; Growth Rate ([1]; 12 h, replicate number 2): 0.95; Growth Rate ([1]; 18 h, replicate number 2): 0.94; Growth Rate ([1]; 24 h, replicate number 2): 0.9; Growth Rate ([2]; 12 h, replicate number 1): -0.03; Growth Rate ([3]; 0 h, replicate number 1): 0.13; Growth Rate ([3]; 0 h, replicate number 2): -0.86 |
| Cc1cccc(CC(=O)N2CCc3c2ccc(-c2cn(C)c4ncnc(N)c24)c3F)n1 | -0.61 | 0.43 | 0.59 | 0.64 | 0.98 | 0.94 | 0.46 | 0.69 | 0.52 | 0.58 | 0.02 | 0.24 | 0.53 | 0.4 | 0.55 | 0.46 | 0.57 | – | 0.31 | 0.26 | Growth Rate ([1]; 18 h, replicate number 2): 0.97; Growth Rate ([1]; 24 h, replicate number 2): 0.71; Growth Rate ([2]; 12 h, replicate number 1): 0.46 |
| COC1(C#Cc2ccc(Cl)c(-c3ncc4c(n3)-c3sc(NC(C)=O)nc3CC4)c2)CCN(C)CC1 | 0.79 | 0.91 | 0.78 | 0.02 | -0.27 | -0.12 | -0.03 | -0.14 | -0.11 | -0.15 | -0.41 | -0.29 | -0.19 | -0.17 | -0.1 | -0.05 | 0.05 | 0.62 | 0.64 | -0.37 | Growth Rate ([1]; 0 h, replicate number 1): 0.64; Growth Rate ([1]; 0 h, replicate number 2): 0.98; Growth Rate ([1]; 12 h, replicate number 2): 0.66; Growth Rate ([1]; 24 h, replicate number 2): 0.62; Growth Rate ([2]; 12 h, replicate number 1): 0.03; Growth Rate ([3]; 0 h, replicate number 2): -1 |
| CC1CNCCc2c1nc1ccnn1c2N1CC(C(=O)N2CCC(C)(C)C2)C1 (configuration not stated) | 0.99 | 0.75 | 0.98 | 0.73 | -0.38 | 0.76 | 0.7 | 0.74 | 0.84 | 0.97 | – | – | – | – | – | – | – | – | 0.86 | 0.99 | Growth Rate ([1]; 0 h, replicate number 1): 0.03; Growth Rate ([2]; 0 h, replicate number 1): -1; Growth Rate ([2]; 12 h, replicate number 1): 0.56 |
| O=C(O)Cc1ccc(CCNS(=O)(=O)c2ccc(Cl)cc2)cc1 [DALTROBAN] | – | – | 0.96 | – | – | – | – | – | 0.99 | – | 0.23 | 0.38 | 0.95 | 0.67 | – | 0.72 | – | – | – | 0.8 | Growth Rate ([2]; 0 h, replicate number 2): -0.53 |
| Cl.Cl.c1ccc2c(-c3cnn4cc(-c5ccc(N6CCNCC6)cc5)cnc34)ccnc2c1 | -0.9 | -0.48 | -0.32 | -0.76 | – | – | – | – | – | – | – | – | -0.66 | – | -0.48 | – | -0.38 | -0.64 | -0.35 | -0.92 | Growth Rate ([1]; 0 h, replicate number 1): -0.92; Growth Rate ([1]; 12 h, replicate number 2): -0.46; Growth Rate ([1]; 18 h, replicate number 2): -0.37; Growth Rate ([2]; 0 h, replicate number 2): -0.67; Growth Rate ([2]; 12 h, replicate number 1): -1; Growth Rate ([3]; 0 h, replicate number 1): -0.16 |
